Test results as given in PMC9000871, “Rhodamine 101 Conjugates of Triterpenoic Amides Are of Comparable Cytotoxicity as Their Rhodamine B Analogs” (Molecules, 2022).
Structures can show the parent of a compound that is named as a salt.

What was measured:
A375 (melanoma) = assay: SRB cytotoxicity assay, A375; type: cell-based, human; details: Homo sapiens, A-375, 72 h, 72 h of treatment, mean ± standard mean error
From the text: (§1) The cell lines were obtained from Department of Oncology (Martin-Luther-University Halle Wittenberg; they were bought from ATCC; A 375 (CRL-1619), HT29 (HTB-38), MCF7 (HTM-22), A2780 (HTP-77), FaDu (HTP-43), NIH 3T3 (CRL-1658), HEK-293 (CRL-1573)). Cultures were maintained as monolayers in RPMI 1640 medium with L-glutamine (Capricorn Scientific GmbH, Ebsdorfergrund, Germany) supplemented with 10% heat inactivated fetal bovine serum (Sigma-Aldrich Chemie GmbH, Steinheim, Germany) and penicillin/streptomycin (1%, Capricorn Scientific GmbH, Ebsdorfergrund, Germany) at 37 °C in a humidified atmosphere with 5% CO2. The cytotoxicity of the compounds was evaluated using the sulforhodamine-B (Kiton-Red S, ABCR) micro culture colorimetric assay using confluent cells in 96-well plates with the seeding of the cells on day 0 applying appropriate cell densities to prevent confluence of the cells during the period of the experiment. On day 1, the cells were treated with six different concentrations (1, 3, 7, 12, 20, and 30 μM); thereby, the final concentration of DMSO was always <0.5%, generally regarded as non-toxic to the cells. On day 4, the supernatant medium was discarded; the cells were fixed with 10% trichloroacetic acid. After another day at 4 °C, the cells were washed in a strip washer and dyed with the SRB solution (100 μL, 0.4% in 1% acetic acid) for about 20 min to be followed by washing of the plates (four times, 1% acetic acid) and air-drying overnight. Furthermore, tris base solution (200 μL, 10 mM) was added to each well and absorbance was measured at λ = 570 nm employing a reader (96 wells, Tecan Spectra, Crailsheim, Germany). The EC50 values were averaged from three independent experiments performed each in triplicate calculated from semi logarithmic dose response curves applying a non-linear four-parameter Hills-slope equation (GraphPad Prism5; variables top and bottom were set to 100 and 0, respectively).

[1] = tested on: HT29 (colon adenocarcinoma); assay: SRB cytotoxicity assay, HT29; type: cell-based, human; details: Homo sapiens, HT-29, 72 h, 72 h of treatment, mean ± standard mean error
From the text: as §1

[2] = tested on: A2780 (ovarian carcinoma); assay: SRB cytotoxicity assay, A2780; type: cell-based; details: Homo sapiens, 72 h of treatment, mean ± standard mean error
From the text: as §1

[3] = tested on: NIH 3T3 (fibroblasts), non-malignant; assay: SRB cytotoxicity assay, NIH 3T3; type: cell-based; details: Mus musculus, NIH3T3, 72 h, 72 h of treatment, mean ± standard mean error
From the text: as §1

[4] = tested on: MCF-7 (breast adenocarcinoma); assay: SRB cytotoxicity assay, MCF-7; type: cell-based; details: Homo sapiens, MCF7, 72 h of treatment, mean ± standard mean error
From the text: as §1

Structure (SMILES)	EC50 (A375 (melanoma)) [nM]	EC50 [1] [nM]	EC50 [2] [nM]	EC50 [3] [nM]	EC50 [4] [nM]	melting point [°C]
CCN(CC)c1ccc2c(-c3ccccc3C(=O)N3CCCN(C(=O)[C@]45CC[C@@H](C(C)=O)C4C4CCC6[C@@]7(C)CC[C@H](OC(C)=O)C(C)(C)C7CC[C@@]6(C)[C@]4(C)CC5)CC3)c3ccc(=[N+](CC)CC)cc-3oc2c1 (stereo partly drawn) [compound 20, 9-[2-[[4-(3β-Acetyloxy-20,28-dioxo-30-norlupan-28-yl)-1-homopiperazinyl]carbonyl]phenyl]-3,6-bis(diethylamino)-xanthylium chloride]	240 ± 17	300 ± 27	120 ± 18	340 ± 56	150 ± 50	
C=C(C)[C@@H]1CC[C@]2(C(=O)N3CCCNCC3)CC[C@]3(C)C(CCC4[C@@]5(C)CC[C@H](OC(C)=O)C(C)(C)C5CC[C@]43C)C12 (stereo partly drawn) [compound 9, 3β-Acetyloxy-28-(1-homopiperazinyl)-lup-20(29)en-28-one]	18700 ± 1600	5100 ± 1100	12000 ± 600	18700 ± 1600	10700 ± 1000	
CCN(CC)c1ccc2c(-c3ccccc3C(=O)N3CCCN(C(=O)[C@]45CC[C@@H](C)[C@H](C)C4C4=CCC6[C@@]7(C)CC[C@H](OC(C)=O)C(C)(C)C7CC[C@@]6(C)[C@]4(C)CC5)CC3)c3ccc(=[N+](CC)CC)cc-3oc2c1 (stereo partly drawn) [compound 19, 9-[2-[[4-(3β-Acetyloxy-28-oxo-urs-12-en-28-yl]-1-homopiperazinyl]carbonyl]phenyl]-3,6-bis(diethylamino)-xanthylium chloride]	510 ± 50	500 ± 70	450 ± 30	400 ± 30	390 ± 40	
CCN(CC)c1ccc2c(-c3ccccc3C(=O)N3CCCN(C(=O)[C@]45CCC(C)(C)CC4C4=CCC6[C@@]7(C)CC[C@H](OC(C)=O)C(C)(C)C7CC[C@@]6(C)[C@]4(C)CC5)CC3)c3ccc(=[N+](CC)CC)cc-3oc2c1 (stereo partly drawn) (as salt: chloride) (hydrate or solvate) [compound 18, 9-[2-[[4-(3β-Acetyloxy-28-oxo-olean-12-en-28-yl]-1-homopiperazinyl]carbonyl]phenyl]-3,6-bis(diethylamino)-xanthylium chloride]						235 to 241
C=C(C)[C@@H]1CC[C@]2(C(=O)N3CCCN(C(=O)c4ccccc4-c4c5ccc(=[N+](CC)CC)cc-5oc5cc(N(CC)CC)ccc45)CC3)CC[C@]3(C)C(CCC4[C@@]5(C)CC[C@H](OC(C)=O)C(C)(C)C5CC[C@]43C)C12 (stereo partly drawn) [compound 17, 9-[2-[[4-(3β-Acetyloxy-28-oxo-30-norlupan-28-yl)-1-homopiperazinyl]carbonyl]phenyl]-3,6-bis(diethylamino)-xanthylium chloride]	760 ± 90	280 ± 10	220 ± 10	330 ± 70	220 ± 20	
CCN(CC)c1ccc2c(-c3ccccc3C(=O)N3CCN(C(=O)[C@]45CC[C@@H](C(C)=O)C4C4CCC6[C@@]7(C)CC[C@H](OC(C)=O)C(C)(C)C7CC[C@@]6(C)[C@]4(C)CC5)CC3)c3ccc(=[N+](CC)CC)cc-3oc2c1 (stereo partly drawn) (as salt: chloride) [compound 16, 9-[2-[[4-(3β-Acetyloxy-20,28-dioxo-30-norlupan-28-yl)-1-piperazinyl]carbonyl]phenyl]-3,6-bis(diethylamino)-xanthylium chloride]						247 to 254
CCN(CC)c1ccc2c(-c3ccccc3C(=O)N3CCN(C(=O)[C@]45CC[C@@H](C)[C@H](C)C4C4=CCC6[C@@]7(C)CC[C@H](OC(C)=O)C(C)(C)C7CC[C@@]6(C)[C@]4(C)CC5)CC3)c3ccc(=[N+](CC)CC)cc-3oc2c1 (stereo partly drawn) [compound 15, 9-[2-[[4-(3β-Acetyloxy-28-oxo-ursan-12-en-28-yl)-1-piperazinyl]carbonyl]phenyl]-3,6-bis(diethylamino)-xanthylium chloride]	40 ± 20	83 ± 7	38 ± 2	137 ± 9	75 ± 5	
CC(=O)O[C@H]1CC[C@@]2(C)C(CC[C@]3(C)C2CCC2C4[C@H](C(C)=O)CC[C@]4(C(=O)N4CCCN(C(=O)c5ccccc5C5=c6cc7c8c(c6Oc6c5cc5c9c6CCCN9CCC5)CCC[N+]=8CCC7)CC4)CC[C@]23C)C1(C)C (some centres unmarked) (as salt: chloride) [compound 28]						> 300
CCN(CC)c1ccc2c(-c3ccccc3C(=O)N3CCN(C(=O)[C@]45CCC(C)(C)CC4C4=CCC6[C@@]7(C)CC[C@H](OC(C)=O)C(C)(C)C7CC[C@@]6(C)[C@]4(C)CC5)CC3)c3ccc(=[N+](CC)CC)cc-3oc2c1 (stereo partly drawn) [compound 14, 9-[2-[[4-(3β-Acetyloxy-28-oxo-olean-12-en-28-yl)-1-piperazinyl]carbonyl]phenyl]-3,6-bis(diethylamino)-xanthylium chloride]	90 ± 10	91 ± 10	32 ± 1	137 ± 6	62 ± 4	
CCN(CC)c1ccc2c(-c3ccccc3C(=O)N3CCCN(C(=O)[C@]45CCC(C)(C)CC4C4=CCC6[C@@]7(C)CC[C@H](OC(C)=O)C(C)(C)C7CC[C@@]6(C)[C@]4(C)CC5)CC3)c3ccc(=[N+](CC)CC)cc-3oc2c1 (stereo partly drawn) [compound 18, 9-[2-[[4-(3β-Acetyloxy-28-oxo-olean-12-en-28-yl]-1-homopiperazinyl]carbonyl]phenyl]-3,6-bis(diethylamino)-xanthylium chloride]	40 ± 10	40 ± 10	20 ± 3	140 ± 20	30 ± 4	
C=C(C)[C@@H]1CC[C@]2(C(=O)N3CCCN(C(=O)c4ccccc4-c4c5ccc(=[N+](CC)CC)cc-5oc5cc(N(CC)CC)ccc45)CC3)CC[C@]3(C)C(CCC4[C@@]5(C)CC[C@H](OC(C)=O)C(C)(C)C5CC[C@]43C)C12 (stereo partly drawn) (as salt: chloride) (hydrate or solvate) [compound 17, 9-[2-[[4-(3β-Acetyloxy-28-oxo-30-norlupan-28-yl)-1-homopiperazinyl]carbonyl]phenyl]-3,6-bis(diethylamino)-xanthylium chloride]						261 to 266
CCN(CC)c1ccc2c(-c3ccccc3C(=O)N3CCN(C(=O)[C@]45CC[C@@H](C)[C@H](C)C4C4=CCC6[C@@]7(C)CC[C@H](OC(C)=O)C(C)(C)C7CC[C@@]6(C)[C@]4(C)CC5)CC3)c3ccc(=[N+](CC)CC)cc-3oc2c1 (stereo partly drawn) (as salt: chloride) [compound 15, 9-[2-[[4-(3β-Acetyloxy-28-oxo-ursan-12-en-28-yl)-1-piperazinyl]carbonyl]phenyl]-3,6-bis(diethylamino)-xanthylium chloride]						245 to 251
C=C(C)[C@@H]1CC[C@]2(C(=O)N3CCN(C(=O)c4ccccc4-c4c5ccc(=[N+](CC)CC)cc-5oc5cc(N(CC)CC)ccc45)CC3)CC[C@]3(C)C(CCC4[C@@]5(C)CC[C@H](OC(C)=O)C(C)(C)C5CC[C@]43C)C12 (stereo partly drawn) (as salt: chloride) [compound 13, 9-[2-[[4-(3β-Acetyloxy-28-oxo-lup-20(29)en-28-yl)-1-piperazinyl]carbonyl]phenyl]-3,6-bis(diethylamino)-xanthylium chloride]						247 to 252
C=C(C)[C@@H]1CC[C@]2(C(=O)N3CCN(C(=O)c4ccccc4-c4c5ccc(=[N+](CC)CC)cc-5oc5cc(N(CC)CC)ccc45)CC3)CC[C@]3(C)C(CCC4[C@@]5(C)CC[C@H](OC(C)=O)C(C)(C)C5CC[C@]43C)C12 (stereo partly drawn) [compound 13, 9-[2-[[4-(3β-Acetyloxy-28-oxo-lup-20(29)en-28-yl)-1-piperazinyl]carbonyl]phenyl]-3,6-bis(diethylamino)-xanthylium chloride]	90 ± 10	151 ± 22	50 ± 4	208 ± 34	81 ± 5	
C=C(C)[C@@H]1CC[C@]2(C(=O)N3CCNCC3)CC[C@]3(C)C(CCC4[C@@]5(C)CC[C@H](OC(C)=O)C(C)(C)C5CC[C@]43C)C12 (stereo partly drawn) [compound 5, 3β-Acetyloxy-28-(1-piperazinyl)-lup-20(29)en-28-one]	1500 ± 300	1000 ± 100	1900 ± 100	900 ± 100	1400 ± 100	
CCN(CC)c1ccc2c(-c3ccccc3C(=O)N3CCN(C(=O)[C@]45CC[C@@H](C(C)=O)C4C4CCC6[C@@]7(C)CC[C@H](OC(C)=O)C(C)(C)C7CC[C@@]6(C)[C@]4(C)CC5)CC3)c3ccc(=[N+](CC)CC)cc-3oc2c1 (stereo partly drawn) [compound 16, 9-[2-[[4-(3β-Acetyloxy-20,28-dioxo-30-norlupan-28-yl)-1-piperazinyl]carbonyl]phenyl]-3,6-bis(diethylamino)-xanthylium chloride]	80 ± 30	99 ± 16	36 ± 1	171 ± 6	70 ± 2	
